A short description of one data set: Monkey pharmacokinetics. The conditions noted are these: data not shown. It is filed as in vivo.
The next data set concerns the target T1, hTSHR (Homo sapiens, UniProt P16473).
T1 construct: expressed in transfected cells
Put plainly: cAMP (HTRF) in CHO cells transfected with hTSHR. The data set is classed as cell-based. The note with it: for Ratio of EC50 TSHR/FSHR: CHO assays; for EC50: compounds in presence of EC20 ligand (Figure 1 legend); for EC50 / % Response, CHO-hTSHR: mean ± SEM; for % Response, CHO-hTSHR: maximal cAMP vs maximal response of TSH. The method, then: (§1) Chinese hamster ovary (CHO) cells transfected with hFSHR, hLHR or hTSHR were grown as described previously ([Kelton et al., 1992]; [Persani et al., 1993]; [Yu et al., 2014]). In brief, CHO-hFSHR and CHO-hTSHR were maintained in DMEM/F12 + 10% FBS in T150 culture flasks. The cells were cultured until they reached 70–80% confluence (three days) and were then used for assays or passaged. CHO-hLHR ([van de Lagemaat et al., 2009]; [Sriraman et al., 2014]) was cultured in MEM alpha (++) +10% FBS and G418, and passaged every three days. CHO-hFSHR or −hLHR or −hTSR cells (2,500/well) were plated in 5 µL of phenol red free DMEM/F12 + 1% FBS in 384 well solid white low volume plates (Greiner 784075) by Multidrop. […] The plates were incubated at 37°C for 1 h. After the incubation period, cAMP was measured by HTRF® (homogeneous time-resolved fluorescence) assay (CisBio, Bedford, MA). In brief, conditioned media were incubated with cryptate-labeled cAMP antibody and d2-labeled cAMP in lysis buffer for 1 h. Free cAMP produced by cells competes with cAMP-d2 for binding to the anti-cAMP cryptate. An increase in cellular cAMP leads to a decrease in fluorescence resonance energy transfer, which is detectable as a decrease in the emission at 665 nm, measured by Envision fluorescence reader (PerkinElmer, Waltham, MA). The readout was calculated fluorescence ratio (665/620 nm). Values given in percent (%) indicate the percent response at a certain concentration of agonist relative to the maximum response of the protein ligand standard.
Background: TR-FRET usually uses a lanthanide donor and a delayed reading to cut background.

The test system of the next data set is Adenosine A3 receptor. The note with it: dose response.
For another data set, the system named is immature SD rats. Kind of data set: Superovulation assay in immature rats. The data set is classed as in vivo, rat. The note with it: for minimal effective dose, cumulus oocyte complexes (COC): with low dose rec-hFSH (0.29 IU). On the procedure:
(§2) Immature SD rats and B6C3F1 mice (both 18–21 day old females) were purchased from Charles-River laboratories (Wilmington, MA, United States and Shanghai, China). All animals were treated in accordance to Chempartner (Shanghai, China) or Embryotech (Haverhill, MA, United States) IACUC approved animal protocols. The animals were provided water and food ad libitum and housed under 12 h dark and 12 h light schedules.
Immature rats and mice were used to investigate the ability of the small molecules to induce follicular development and support ovulation as described elsewhere ([Steelman and Pohley, 1953]) with modifications ([Sriraman et al., 2014]). […] The isolated COC’s were treated with hyaluronidase and the total number of ovulated oocytes was determined microscopically.
Plasma concentrations of FSHR-AA were measured during superovulation assays, except for experiments where plasma was collected for estradiol measurements.

The conditions of data set [1]: microsomes.
The subject of a further data set is immature B6C3F1 mice. Put plainly: Superovulation assay in immature mice. The data set is classed as in vivo, mouse. The conditions noted are these: 30 and 100 mg/kg, mice receiving low dose rec-hFSH (0.15 IU). The method, then: as §2
Immature rats and mice were used to investigate the ability of the small molecules to induce follicular development and support ovulation as described elsewhere ([Steelman and Pohley, 1953]) with modifications ([Sriraman et al., 2014]). […] […] The isolated COC’s were treated with hyaluronidase and the total number of ovulated oocytes was determined microscopically.
[…] […] In some experiments, serum was collected from the animals prior to the ovulatory dose of hCG to determine estradiol levels. Plasma concentrations of FSHR-AA were measured during superovulation assays, except for experiments where plasma was collected for estradiol measurements.

The test system of a further data set is Cl-channel (GABA-gated). The note with it: dose response.
The target of the next data set is T2, hLH/CGR (Homo sapiens, UniProt P22888).
T2 construct: expressed in transfected cells
T2 sequence (P22888 27-699): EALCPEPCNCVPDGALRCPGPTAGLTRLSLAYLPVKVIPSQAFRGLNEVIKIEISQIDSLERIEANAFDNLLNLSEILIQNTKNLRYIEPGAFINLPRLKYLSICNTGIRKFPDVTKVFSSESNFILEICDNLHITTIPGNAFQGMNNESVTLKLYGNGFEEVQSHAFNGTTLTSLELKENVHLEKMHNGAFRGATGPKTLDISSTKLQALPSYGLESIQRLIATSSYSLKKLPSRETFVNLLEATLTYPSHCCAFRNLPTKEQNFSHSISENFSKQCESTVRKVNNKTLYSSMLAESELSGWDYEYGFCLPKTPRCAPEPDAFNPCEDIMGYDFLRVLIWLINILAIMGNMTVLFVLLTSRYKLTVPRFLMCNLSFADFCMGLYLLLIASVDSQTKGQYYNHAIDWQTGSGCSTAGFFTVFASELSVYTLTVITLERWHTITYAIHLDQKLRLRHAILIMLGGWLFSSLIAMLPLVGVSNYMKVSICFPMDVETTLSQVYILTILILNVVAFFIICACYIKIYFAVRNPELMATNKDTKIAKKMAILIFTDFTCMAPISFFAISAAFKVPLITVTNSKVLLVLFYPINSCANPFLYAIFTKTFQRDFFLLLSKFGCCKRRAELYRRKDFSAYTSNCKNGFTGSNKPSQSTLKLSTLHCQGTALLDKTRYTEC
Kind of data set: cAMP (HTRF) in CHO cells transfected with hLH/CGR. The data set is classed as cell-based. The conditions noted are these: for EC50: compounds in presence of EC20 ligand (Figure 1 legend); for EC50 / % Response, CHO-hLH/CGR: mean ± SEM; for % Response, CHO-hLH/CGR: maximal cAMP vs maximal response of hCG. The method, then: as §1

A short description of the next data set: Rat pharmacokinetics. It is filed as in vivo. The conditions noted are these: for Rat PK %F: oral bioavailability. On the procedure: […] Blood samples were collected at serial time points from 5 min to 24 h. The circulating concentrations of the compound in plasma samples were analyzed by HPLC. PK parameters were determined with Phoenix WinNonlin software (Pharsight Corporation, Sunnyvale, CA, United States) using a non-compartmental model.

A further data set deals with rat Leydig cells. Put plainly: Testosterone production from rat primary Leydig cells. It is filed as cell-based. The note with it: 3 h incubation. On the procedure: Testes were obtained from 21 day old male SD rats, decapsulated into DMEM/F12 media, placed into a spinner flask containing pre-warmed 25 ml digestion media (DMEM/F12 no phenol red + 1 mg/ml Collagenase), and stirred at 37°C in 5% CO2 incubator for 10–15 min ([Hedger et al., 1990]). The digestion supernatant was passed through a 70 um cell strainer into a 50 ml tube, and the digestion was stopped with 0.1% BSA + 0.1 mg/ml trypsin soybean inhibitor) in 50 ml. The digested cells were centrifuged at 800 rpm for 5 min, the supernatant discarded and the cell pellet resuspend in 1 ml assay buffer (DMEM/F12 no phenol red +0.1% BSA) per paired testes. The cells were counted and diluted to 5 × 10^6 cells/ml, and 50 ul of this cell suspension was added to each well of a 96-well plate. Testes obtained from five 21 day old rats generally yielded 1 × 10^8 cells. […] At the end of incubation, media was collected and testosterone measured by ELISA (EIA‐1559, DRG).

For data set [2] the following is noted: microsomes. This is another data set of the same source.

Two compounds from article PMC7845544 (Frontiers in Pharmacology, 2021) can be followed below.

A word on the EC50: it is the concentration that produces a half-maximal response.

Several values for one entry are separate records, joined by “and”; a condition that tells them apart may be missing. Equal entries are not always repeated. Entries after “also recorded” stand apart in the source; their conditions may differ.

T1 sequence (P16473 21-764): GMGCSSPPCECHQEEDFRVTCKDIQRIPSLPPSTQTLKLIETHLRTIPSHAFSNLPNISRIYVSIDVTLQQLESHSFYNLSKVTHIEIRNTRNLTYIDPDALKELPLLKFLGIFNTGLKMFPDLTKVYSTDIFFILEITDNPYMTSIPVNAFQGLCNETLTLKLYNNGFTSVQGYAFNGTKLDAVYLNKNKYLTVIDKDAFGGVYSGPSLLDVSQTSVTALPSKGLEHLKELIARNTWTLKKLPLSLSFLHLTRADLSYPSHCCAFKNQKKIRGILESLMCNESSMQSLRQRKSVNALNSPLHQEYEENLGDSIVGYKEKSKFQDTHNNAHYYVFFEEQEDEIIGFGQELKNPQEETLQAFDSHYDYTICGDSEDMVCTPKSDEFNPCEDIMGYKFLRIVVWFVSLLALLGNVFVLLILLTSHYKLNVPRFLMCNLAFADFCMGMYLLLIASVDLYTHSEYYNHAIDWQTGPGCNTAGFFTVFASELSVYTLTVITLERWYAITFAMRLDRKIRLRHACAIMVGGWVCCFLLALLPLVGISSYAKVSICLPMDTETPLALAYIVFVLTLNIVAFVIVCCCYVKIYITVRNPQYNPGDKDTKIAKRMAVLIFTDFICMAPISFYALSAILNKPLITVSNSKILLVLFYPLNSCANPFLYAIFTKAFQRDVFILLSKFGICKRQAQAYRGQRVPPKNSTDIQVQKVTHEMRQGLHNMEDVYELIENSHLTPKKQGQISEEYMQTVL

In the case of `COc1cc2c(cc1-c1cnn(CCO)c1)-c1c(c(C(=O)N(C)C(C)(C)C)nn1-c1cc(Cl)cc(Cl)c1)CO2` [TOP5300], the “half-life, monkey PK” value in “Monkey pharmacokinetics” was found to be 12.1 h. Besides, on hTSHR, the “Ratio of EC50 TSHR/FSHR” value is 52; the 50% effective concentration (EC50) was determined as 505 nM; the “% Response, CHO-hTSHR” value turned out to be 84.97 ± 0.85%. For the same compound, in the data set on Adenosine A3 receptor, the “selectivity / safety margin compared to FSHR, A3(h)” value is “over 400 fold”. The “number of COCs vs 1.16 IU rec-hFSH” value with immature SD rats (50 mg/kg, oral, with 0.29 IU rec-hFSH) was “not significantly different from 1.16 IU rec-hFSHH”. Further, the “serum estradiol-17β production” value in the data set on immature SD rats (5, 10 and 25 mg/kg, immature rat) is listed as “followed the follicular stimulation response”. Moreover, in the data set with immature SD rats (immature rat, oral), the “follicular maturation with or without supplemental rec-hFSH (0.29 IU)” value is recorded as “full agonist” and the “minimal effective dose, cumulus oocyte complexes (COC)” value came to 5 mg/kg. The “single daily dose (QD) vs twice daily (BID) administration, follicular maturation” value in the data set with immature SD rats (immature rat, oral gavage, with 0.29 IU FSH) was “stimulates similar follicular growth; also recorded: equally effective as twice daily administrations”. Moreover, in [1], the “Clint, dog” value stood at 37 µl/min/mg protein. In the data set on immature B6C3F1 mice, the “follicular growth and ovulation” value was “dose-dependent increases in follicular growth and ovulation”. In the data set on Cl-channel (GABA-gated), the “selectivity / safety margin compared to FSHR, Cl-channel (GABA-gated)” value is given as “over 400 fold”. In addition, on hLH/CGR, the EC50 was found to be 56.7 nM and the “% Response, CHO-hLH/CGR” value is 95.68 ± 0.37%. In the data set “Rat pharmacokinetics” (10 mg/kg), the “Rat PK AUC” value is given as 2,655 ng*h/ml, the “Rat PK Cmax” value is 237 ng/mL, the “Rat PK T1/2” value stood at 5.1 h and the “Rat PK %F” value worked out at 20%. Besides, the “testosterone production from cultured rat Leydig cells” value in the data set on rat Leydig cells is “stimulated concentration-dependent increases in testosterone production”. The “Clint, monkey” value in [2] came to 165 µl/min/mg protein.

Regarding `COc1cc(C(N)=O)cc(-c2cc3c(cc2OC)OCc2c(C(=O)N(C)C(C)(C)C)nn(-c4cc(Cl)cc(Cl)c4)c2-3)n1` [TOP5668], on hTSHR, the “Ratio of EC50 TSHR/FSHR” value turned out to be 77; the concentration giving a half-maximal response (EC50) was 170 nM; the “% Response, CHO-hTSHR” value was 92.28 ± 0.88%. Moreover, the “fold more potent than TOP5300, superovulation dose response” value in the data set with immature SD rats (immature rat) was “approximately 2 fold”. The “minimal effective dose, cumulus oocyte complexes (COC)” value in the data set on immature SD rats (immature rat, oral) worked out at 2.5 mg/kg. For the same compound, in [1], the “Clint, dog” value is 44 µl/min/mg protein. Further, at hLH/CGR (CHO assays), the “Ratio of EC50 LHR/FSHR” value was found to be 80. Besides, at hLH/CGR, the concentration giving a half-maximal response (EC50) worked out at 176 nM and the “% Response, CHO-hLH/CGR” value is 96.64 ± 0.61%. Besides, the “fold lower exposure than TOP5300” value in the data set “Rat pharmacokinetics” (mature rat pharmacokinetic models) was 3-4 fold. In “Rat pharmacokinetics” (5 mg/kg), the “Rat PK AUC” value is 1,530 ng*h/ml; the “Rat PK Cmax” value amounted to 132 ng/mL; the “Rat PK T1/2” value was 2.4 h; the “Rat PK %F” value was 5% and 5.4%. Besides, in the data set with rat Leydig cells, the “testosterone production from cultured rat Leydig cells” value is given as “very little activity”. For the same compound, the “Clint, monkey” value in data set [2] amounted to 117 µl/min/mg protein.
